Data set [1] deals with Pneumocystis carinii. Particulars: in vivo; cited from earlier work.
For data set [2] the following is noted: TMP-SMX oral or parenteral; pentamidine isethionate parenteral; cited from earlier work.
For data set [3], the system named is Pneumocystis carinii. To be noted: human, in vivo; cited from earlier work.
For data set [4], the system named is Pneumocystis carinii. Put plainly: Example 8: randomized clinical trial, prevention of PCP. The class given is in vivo, human. To be noted: AZT use.

On to `NCCC[C@](N)(C(=O)O)C(F)F` [DFMO, α-difluoromethylornithine], for which the “efficacy in rat PCP model” value in the data set on Pneumocystis carinii [1] is given as “not efficacious”. Consider `N=C(N)c1ccc(OCCCCCOc2ccc(C(=N)N)cc2)cc1` [pentamidine isethionate], for which the “patients developing severe toxicity requiring discontinuation” value in data set [2] was “approximately 50%”.

Consider `COc1cc(NCc2ccc3nc(N)nc(N)c3c2C)cc(OC)c1OC` [trimetrexate], for which the “relapse rates within one month” value with Pneumocystis carinii [3] is reported as “high”. Turning to `Cc1cn([C@H]2C[C@H](N=[N+]=[N-])[C@@H](CO)O2)c(=O)[nH]c1=O` [zidovudine], the “independent reduction of PCP risk, Cox models” value in the data set with Pneumocystis carinii [4] is given as “two-fold”.

The values above are taken from US5366726A (priority 1992, dated 1994).
